The text below walks through data of patent US20210122763A1, “OGA INHIBITOR COMPOUNDS” (Janssen Pharmaceutica NV, priority 2018, published 2021).

The target in experiment [1] is T1, OGA (Homo sapiens, UniProt O60502).
T1 construct: HEK293 cells inducible for P301L mutant human Tau (isoform 2N4R) were established at Janssen; endogenous in cells; host or cells: HEK293 cells inducible for P301L mutant human Tau (2N4R)
T1 sequence (O60502 1-916): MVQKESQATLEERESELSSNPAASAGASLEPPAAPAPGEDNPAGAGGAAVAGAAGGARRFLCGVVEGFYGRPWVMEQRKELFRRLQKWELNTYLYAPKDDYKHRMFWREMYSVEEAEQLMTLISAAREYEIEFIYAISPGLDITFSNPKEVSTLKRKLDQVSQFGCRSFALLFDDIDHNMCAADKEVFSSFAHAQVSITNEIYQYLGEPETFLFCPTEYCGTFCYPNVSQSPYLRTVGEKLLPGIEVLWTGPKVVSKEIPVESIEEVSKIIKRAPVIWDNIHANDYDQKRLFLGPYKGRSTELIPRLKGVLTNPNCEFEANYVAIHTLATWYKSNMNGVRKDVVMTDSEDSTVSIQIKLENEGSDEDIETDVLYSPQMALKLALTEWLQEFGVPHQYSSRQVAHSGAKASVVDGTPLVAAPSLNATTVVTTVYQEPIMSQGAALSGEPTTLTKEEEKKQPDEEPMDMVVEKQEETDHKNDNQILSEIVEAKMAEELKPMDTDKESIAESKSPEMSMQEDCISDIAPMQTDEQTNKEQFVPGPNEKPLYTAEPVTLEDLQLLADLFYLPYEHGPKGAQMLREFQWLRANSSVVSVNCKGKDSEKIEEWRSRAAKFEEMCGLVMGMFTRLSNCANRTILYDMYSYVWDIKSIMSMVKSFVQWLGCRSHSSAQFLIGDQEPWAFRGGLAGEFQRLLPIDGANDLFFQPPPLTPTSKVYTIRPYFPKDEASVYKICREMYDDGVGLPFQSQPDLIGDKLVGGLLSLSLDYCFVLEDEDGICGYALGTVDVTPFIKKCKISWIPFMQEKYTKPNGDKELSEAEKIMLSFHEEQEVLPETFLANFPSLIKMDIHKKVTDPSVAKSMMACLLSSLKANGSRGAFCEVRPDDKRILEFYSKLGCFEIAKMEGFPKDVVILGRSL
The experiment is described as follows: OGA cellular assay (ICC detection of O-GlcNAcylated proteins in HEK293 cells inducible for P301L mutant human Tau). The experiment is classed as cell-based. The note with it: 6 hours incubation; for Emax: HEK293, HEK293 cells inducible for P301L mutant human Tau; for EC50: read-out: Cellular hOGA, pEC50 (converted). The protocol: HEK293 cells inducible for P301L mutant human Tau (isoform 2N4R) were established at Janssen. Thiamet-G was used for both plate validation (high control) and as reference compound (reference EC50 assay validation). OGA inhibition is evaluated through the immunocytochemical (ICC) detection of O-GlcNAcylated proteins by the use of a monoclonal antibody (CTD110.6; Cell Signaling, #9875) detecting 0-GlcNAcylated residues as previously described (Dorfmueller et al. 2010 Chemistry & biology, 17:1250). Inhibition of OGA will result in an increase of 0-GlcNAcylated protein levels resulting in an increased signal in the experiment. Cell nuclei are stained with Hoechst to give a cell culture quality control and a rough estimate of immediate compounds toxicity, if any. ICC pictures are imaged with a Perkin Elmer Opera Phenix plate microscope and quantified with the provided software Perkin Elmer Harmony 4.1.
Cells were propagated in DMEM high Glucose (Sigma, #D5796) following standard procedures. 2 days before the cell assay cells are split, counted and seeded in Poly-D-Lysine (PDL) coated 96-wells (Greiner, #655946) plate at a cell density of 12,000 cells per cm^2 (4,000 cells per well) in 100p of Assay Medium (Low Glucose medium is used to reduce basal levels of GlcNAcylation) (Park et al. 2014 The Journal of biological chemistry 289:13519). At the day of compound test medium from assay plates was removed and replenished with 90 μl of fresh Assay Medium. 10 μl of compounds at a 10 fold final concentration were added to the wells. Plates were centrifuged shortly before incubation in the cell incubator for 6 hours. DMSO concentration was set to 0.2%. Medium is discarded by applying vacuum. For staining of cells medium was removed and cells washed once with 100 μl D-PBS (Sigma, #D8537). From next step onwards unless other stated assay volume was always 50p and incubation was performed without agitation and at room temperature. Cells were fixed in 50 μl of a 4% paraformaldehyde (PFA, Alpha aesar, #043368) PBS solution for 15 minutes at room temperature. […] Before analysis samples were washed 2 times manually for 5 minutes in ICC base buffer.
Imaging is performed using Perkin Elmer Phenix Opera using a water 20× objective and recording 9 fields per well. Intensity readout at 488 nm is used as a measure of O-GlcNAcylation level of total proteins in wells. To assess potential toxicity of compounds nuclei were counted using the Hoechst staining. IC50-values are calculated using parametric non-linear regression model fitting. As a maximum inhibition Thiamet G at a 200 uM concentration is present on each plate. In addition, a concentration response of Thiamet G is calculated on each plate.

The target of experiment [2] is T2, recombinant human Meningioma Expressed Antigen 5 (MGEA5), also referred to as O-GlcNAcase (OGA) (Homo sapiens, UniProt O60502).
T2 construct: Full length OGA enzyme was purchased at OriGene (cat #TP322411); purchased OriGene TP322411
T2 sequence (O60502 1-916): T1 sequence (O60502 1-916)
The experiment is described as follows: OGA biochemical assay (inhibition of FM-GlcNAc hydrolysis, fluorescence). The note with it: for Emax: read-out: Enzymatic Emax (%); for IC50: read-out: Enzymatic hOGA, pIC50 (converted). An excerpt:
The assay is based on the inhibition of the hydrolysis of fluorescein mono-B-D-N-Acetyl-Glucosamine (FM-GcNAc) (Mariappa et al. 2015, Biochem J470:255) by the recombinant human Meningioma Expressed Antigen 5 (MGEA5), also referred to as O-GlcNAcase (OGA). The hydrolysis FM-GlcNAc (Marker Gene technologies, cat #M1485) results in the formation of B-D-N-glucosamineacetate and fluorescein. The fluorescence of the latter can be measured at excitation wavelength 485 nm and emission wavelength 538 nm. An increase in enzyme activity results in anincrease in fluorescence signal. Full length OGA enzyme was purchased at OriGene (cat #TP322411). The enzyme was stored in 25 mM Tris.HCl, pH 7.3, 100 mM glycine, 10% glycerol at −20° C. Thiamet G and GlcNAcStatin were tested as reference compounds (Yuzwa et al. 2008 Nature Chemical Biology 4:483; Yuzwa et al. 2012 Nature Chemical Biology 8:393). The assay was performed in 200 mM Citrate/phosphate buffer supplemented with 0.005% Tween-20. 35.6 g Na2HPO4 2H2O (Sigma, #C0759) were dissolved in 1 L water to obtain a 200 mM solution. 19.2 g citric acid (Merck, #1.06580) was dissolved in 1 L water to obtain a 100 mM solution. pH of the sodiumphosphate solution was adjusted with the citric acid solution to 7.2. The buffer to stop the reaction consists of a 500 mM Carbonate buffer, pH 11.0. 734 mg FM-GlcNAc were dissolved in 5.48 mL DMSO to obtain a 250 mM solution and was stored at −20° C. OGA was used at a 2 nM concentration and FM-GcNAc at a 100 uM final concentration. Dilutions were prepared in assay buffer.
50 nl of a compound dissolved in DMSO was dispensed on Black Proxiplate™ 384 Plus Assay plates (Perkin Elmer, #6008269) and 3 μl fl-OGA enzyme mix added subsequently. Plates were pre-incubated for 60 min at room temperature and then 2 μl FM-GlcNAc substrate mix added.
Plates were briefly centrifuged for 1 min at 1000 rpm and incubate at room temperature for 6 h. To stop the reaction 5 μl STOP buffer were added and plates centrifuge again 1 min at 1000 rpm. Fluorescence was quantified in the Thermo Scientific Fluoroskan Ascent or the PerkinElmer EnVision with excitation wavelength 485 nm and emission wavelength 538 nm.
For analysis a best-fit curve is fitted by a minimum sum of squares method. From this an IC50 value and Hill coefficient was obtained. High control (no inhibitor) and low control (saturating concentrations of standard inhibitor) were used to define the minimum and maximum values.

Setting [3] is: HEK293 cells inducible for P301L mutant human Tau.

The term Emax denotes the maximal effect, on the per cent scale that the assay sets. With `Cc1cc(OC2CCN(C(C)c3nc4c(cc3F)OCCO4)CC2)cc(C(F)(F)F)n1` (stereo not drawn) [Compound 18], in experiment [1] (maximum = Thiamet G 200 uM), the Emax was found to be 79%. Further, the EC50 in experiment [1] (setting [3]) is 0.0631 µM. In experiment [2], the Emax came to 101% and the IC50 is 0.00631 µM.
On the same counts, the results for `Cc1cc(OC2CCN(C(C)c3ccc4c(n3)OCCO4)CC2)cc(C(F)(F)F)n1` (stereo not drawn) [Compound 17] are 61%, 0.316 µM, 100% and 0.0398 µM.
On the same counts, the results for `CC(c1nc2c(cc1F)OCCO2)N1CCC(Oc2cnc(C(F)(F)F)nc2)CC1` (stereo not drawn) [Compound 168] are 75%, 0.2 µM, 96% and 0.0126 µM.
With `Cc1cc(OC2CCN(C(C)c3ccc4c(n3)OCCO4)CC2)c(Cl)c(C)n1` (stereo not drawn) [Compound 66], the results for the Emax in experiment [1] (maximum = Thiamet G 200 uM) and in experiment [2] were 73% and 96%, respectively. Besides, in experiment [1] (setting [3]), the EC50 is 0.251 µM. Moreover, in experiment [2], the IC50 is 0.0794 µM.
On the same counts, the results for `Cc1cc(OC2CCN(C(C)c3nc4c(cc3F)CCO4)CC2)cc(C)n1` (stereo not drawn) [Compound 6] are 87%, 101%, 0.0174 µM and 0.00398 µM.
On to `Cc1cc(OC2CCN(C(C)c3cnc4c(c3)OCCO4)CC2)nc(C)n1` (stereo not drawn) [Compound 13], for which the Emax in experiment [1] (maximum = Thiamet G 200 uM) is 8%. Further, in experiment [1] (setting [3]), the EC50 was greater than 1 µM. Further, in experiment [2], the Emax was determined as 96% and the IC50 is 0.501 µM.
`Cc1ccnc(OC2CCN(C(C)c3nc4c(cc3F)OCCO4)CC2)c1` (stereo not drawn) [Compound 161]: the Emax in experiment [1] (maximum = Thiamet G 200 uM) came out at 83%; in experiment [2] it was 97%. Besides, the EC50 in experiment [1] (setting [3]) is 0.158 µM. The IC50 in experiment [2] is 0.02 µM.
On the same counts, the results for `C[C@@H](c1ccc2c(n1)OCCO2)N1CCC(Oc2ccc(C#N)nn2)CC1` [Compound 107] are 51%, 96%, 0.631 µM and 0.158 µM.
On to `COc1cc(C#N)cnc1OC1CCN(C(C)c2ccc3c(n2)OCCO3)CC1` (stereo not drawn) [Compound 102], for which the Emax in experiment [1] (maximum = Thiamet G 200 uM) is 10%. Further, the EC50 in experiment [1] (setting [3]) is greater than 1 µM. In experiment [2], the Emax amounted to 95% and the IC50 was 0.501 µM.
Regarding `Cc1cc(OC2CCN(C(C)c3ccc4c(n3)OCCO4)CC2)cc(C2CC2)n1` (stereo not drawn) [Compound 125], in experiment [1] (maximum = Thiamet G 200 uM), the Emax came to 91%. The EC50 in experiment [1] (setting [3]) was 0.126 µM. In experiment [2], the Emax came out at 96% and the IC50 is 0.0316 µM.
For the compound `CC(c1ccc2c(n1)OCCO2)N1CCC(C)(Oc2ccc(F)cc2)CC1` (stereo not drawn) [Compound 131], the Emax in experiment [1] (maximum = Thiamet G 200 uM) was -4%; in experiment [2], 70%. The EC50 in experiment [1] (setting [3]) was greater than 1 µM. Besides, in experiment [2], the IC50 was 3.98 µM.
On the same counts, the results for `Cc1cc(OC2CCN(C(C)c3nc4c(cc3F)OCCO4)CC2)nc(C)n1` (stereo not drawn) [Compound 12] are 74%, 99%, 0.0794 µM and 0.0158 µM.
Regarding `Cc1cc(COC2CCN(C(C)c3ccc4c(n3)OCC4)CC2)cc(C)n1` (stereo not drawn) [Compound 154], in experiment [1] (maximum = Thiamet G 200 uM), the Emax came to 81%. The EC50 in experiment [1] (setting [3]) was 0.158 µM. In experiment [2], the Emax is 94% and the IC50 was 0.0398 µM.
Turning to `CC(c1ccc2c(n1)OCCO2)N1CCC(Oc2cnc(C3CC3)nc2)CC1` (stereo not drawn) [Compound 120], in experiment [1] (maximum = Thiamet G 200 uM), the Emax came out at 87%. Further, the EC50 in experiment [1] (setting [3]) is 0.251 µM. In experiment [2], the Emax was determined as 98% and the IC50 was 0.0501 µM.
Take `CC(c1ccc2c(n1)OCCO2)N1CCC(Oc2ccncc2C#N)CC1` (stereo not drawn) [Compound 104]: the Emax is 12% in experiment [1] (maximum = Thiamet G 200 uM) and 95% in experiment [2]. For the same compound, the EC50 in experiment [1] (setting [3]) is greater than 1 µM. Besides, the IC50 in experiment [2] was 0.631 µM.
As to `COc1cc(OC2CCN(C(C)c3ccc4c(n3)OCCO4)CC2)cc(C)n1` (single isomer, unassigned) [Compound 53], in experiment [1] (HEK293 cells inducible for P301L mutant human Tau, maximum = Thiamet G 200 uM), the “Cellular Emax (%)” value is −8%. In addition, the EC50 in experiment [1] (setting [3]) was greater than 1 µM. In experiment [2], the “Enzymatic Emax (%)” value was determined as 55% and the IC50 is 7.94 µM.
With `Cc1cc(C(F)(F)F)cc(OC2CCN(C(C)c3nc4c(cc3F)OCCO4)CC2)n1` (stereo not drawn) [Compound 48], the Emax in experiment [1] (maximum = Thiamet G 200 uM) is 84%. Moreover, the EC50 in experiment [1] (setting [3]) was 0.251 µM. In experiment [2], the Emax worked out at 98% and the IC50 is 0.02 µM.
With `Cc1ccc(OC2CCN(C(C)c3nc4c(cc3F)OCCO4)CC2)nc1` (stereo not drawn) [Compound 165], the Emax in experiment [1] (maximum = Thiamet G 200 uM) was 72%. In addition, the EC50 in experiment [1] (setting [3]) was 0.316 µM. Further, in experiment [2], the Emax came to 94% and the IC50 was 0.0158 µM.
